Reference: patent US20110086828A1, “TREATMENT OF ALCOHOL ABUSE AND […] MODULATORS OF NE[…] SITES ON GABAA RECEPTORS” (Board of Supervisors of Louisiana State University and …, priority 2009, published 2011)

Tested on: male Long-Evans hooded rats
Assay: two-bottle ethanol preference test (ethanol intake) after i.p. neuroactive steroid
Format: in vivo, rat
Conditions: for effect on ethanol intake (oral self administration of ethanol): summary statement, twenty-two male Long-Evans hooded rats; for ethanol intake vs baseline / volume of ethanol intake vs baseline: 10 and 56 mg/kg i.p. 15 min before 30-min session; for water intake: 10 and 56 mg/kg i.p.
Protocol: Upon arrival, these subjects were housed 4 per cage and provided a diet of standard rodent chow ad libitum (Rodent Diet 5001, PMI Inc., St. Louis, Mo., USA) until postnatal day (hereinafter “PD”) 70. From PD 71 forward, the subjects were housed individually and maintained at 95% of their free-feeding weight during which a saccharin-fading procedure was conducted. Water was provided ad libitum in the home cage except during the experimental sessions. The home cage was made of polypropylene plastic and contained hardwood chip bedding. The colony room was maintained at 21±2 C.° with 50±10% relative humidity on a 14L:10D (light/dark) cycle (lights on 06:00 hours (h); lights off 20:00 h). Following training under the saccharin-fading procedure, the subjects were returned to ad libitum feeding conditions for 73 (minimum) to 89 (maximum) days during which an ethanol concentration-effect curve was established. After this curve was obtained, subjects were maintained at 95% of their free-feeding weight for the rest of the study. Ethanol preference training and experimental sessions were conducted daily during the light cycle between the hours of 12:00 h and 14:00 h. Subjects used in these studies were maintained in accordance with the Institutional Animal Care and Use Committee, Louisiana State University Health Sciences Center, and in compliance with the guidelines of the National Institute of Health Guide for Care and Use of Laboratory Animal Resources (publication No. 85-23, revised 1996).
While still housed 4 per cage, subjects were randomly divided into two groups, a group that received ethanol between PD 35 and 63 (adolescent ethanol group) and a group that received saline during the same postnatal period (adolescent saline group). The adolescent ethanol group (n=11) received 2 g/kg of ethanol intraperitoneally (hereinafter “i.p.”) every other day, whereas the adolescent saline group (n=11) received an equal volume of saline every other day, for a total of 15 injections.
Subjects were trained to consume ethanol orally using a modified saccharin/ethanol fading procedure (Samson, 1986; Leonard et al., 2006) starting on PD 75. Prior to each daily training session, animals were weighed and then returned to their home cage. Water bottles were removed and replaced for 30 min with 50-ml plastic centrifuge tubes containing a saccharin/ethanol solution and fitted with a rubber stopper and metal sipper tube. At the end of the 30-min session, the drinking tubes were removed, water bottles were replaced, and the volume of the solution consumed was determined by weighing the tubes (i.e., [(weight prior to the session—weight after the session)-0.4 ml)]. All solutions were prepared fresh daily. Rats initially received a 0.2% sodium saccharin(weight (g of sodium saccharin)/volume (100 mL solution))/0% ethanol (volume (mL of alcohol)/volume (100 mL solution)) solution that was gradually replaced until a solution of 0% sodium saccharin/10% ethanol was achieved. After a subject acquired stable saccharin/ethanol intake (±20% of the mean for 3 consecutive days) or a maximum of 8 days elapsed, the next sodiumsaccharin/ethanol solution was presented. Solutions were presented in the following order: 0.2% saccharin/0% ethanol, 0.15% saccharin/0.5% ethanol, 0.125% saccharin/1% ethanol, 0.1% saccharin/2% ethanol, 0.05% saccharin/5% ethanol, 0.01% saccharin/8% ethanol, and 0% saccharin/10% ethanol. Training, which took 40-57 sessions, and all subsequent testing were conducted 7 days per week.
After a stable baseline of ethanol drinking was established with a 10% ethanol solution, a concentration-effect curve for ethanol and water consumption was established using the standard two-bottle preference test. During these tests, subjects were allowed simultaneous access to two drinking tubes daily for 60 min in their home cage. […]

Row | Structure (SMILES) | intake of 18% ethanol solution vs vehicle, after stability criterion met (10 mg/kg i.p., Holm-Sidak post-hoc, n=22) | sedative effects (highest dose of pregnanolone) | intake of 18% ethanol solution, first day of injection, comparison between doses (pregnanolone 3.2 mg/kg i.p. vs 1.8, 5.6 and 10 mg/kg, p<0.05) | intake of 18% ethanol solution vs vehicle, first day of injection (pregnanolone 1-10 mg/kg i.p., 30-min preference session, n=22) | effect on ethanol intake (oral self administration of ethanol) | ethanol intake vs baseline (18% ethanol) | volume of ethanol intake vs baseline (18% ethanol) | water intake (30-min preference session) | ethanol intake volume (56 mg/kg i.p., every ethanol concentration except the 18% concentration) | ethanol intake, first day of injection (100 mg/kg i.p. (highest dose), 18% ethanol, p<0.001, n=22) | shift of ethanol concentration-effect curve (10, 32 and 56 mg/kg i.p. with ethanol 3.2-32%, p<0.05) | ethanol intake at varying ethanol concentrations (10 and 32 mg/kg i.p., both doses comparable) | ethanol intake vs vehicle, after stability criterion met (10 to 100 mg/kg i.p., 18% ethanol, p<0.05, n=22)
1 | CC(=O)[C@H]1CC[C@H]2[C@@H]3CC[C@@H]4C[C@H](O)CC[C@]4(C)[C@H]3CC[C@]12C [pregnanolone, 5β-pregnan-3α-ol-20-one] | significantly differed from vehicle | produced sedative effects | significantly higher | none of the effects of dose were different from vehicle | no apparent effect on ethanol intake |  |  |  |  |  |  |  | 
2 | CC(=O)OC1CC[C@@]2(C)C(=CC(=O)[C@@H]3[C@@H]2CC[C@]2(C)C(=O)CC[C@@H]32)C1 (some centres unmarked) [7-keto-DHEA, 3-acetyl-7-oxo-dehydroepiandrosterone] |  |  |  |  |  | dose-dependent decreases | dose-dependent decreases | not significantly different |  |  |  |  | 
3 | C[C@]12CC[C@H](O)CC1=CC[C@@H]1[C@@H]2CC[C@]2(C)C(=O)CC[C@@H]12 [DHEA, 5-androstene-3β-ol-17-one] |  |  |  |  | markedly reduce oral self administration of ethanol | dose-dependent decreases | dose-dependent decreases | not significantly different | below 1 ml | significant effect | shifted downward significantly | decreased the intake of ethanol concentrations ranging from 3.2 and 18% | significantly decreased intake
